{"source": "patent US9062284B2", "about": "“Uses and detection of herbicide resistance genes for resistance to aryloxyalkanoate herbicides” (Dow ArgoSciences LLC, priority 2007, dated 2015)", "key": {"[1]": {"system": "AAD-13 (v1) transformed T1 Arabidopsis", "assay": "Postemergence herbicide response of AAD-13 (v1) T1 Arabidopsis", "assay_type": "in vivo, Arabidopsis thaliana", "settings": "14 DAT", "method": "Seven days after planting (DAP) and again 11 DAP, T1 plants (cotyledon and 2-4-lf stage, respectively) were sprayed with a 0.2% solution of Liberty herbicide (200 g ai/L glufosinate, Bayer Crop Sciences, Kansas City, Mo.) at a spray volume of 10 ml/tray (703 L/ha) using a DeVilbiss compressed air spray tip to deliver an effective rate of 280 g ai/ha glufosinate per application. Survivors (plants actively growing) were identified 4-7 days after the final spraying and transplanted individually into 3-inch pots prepared with potting media (Metro Mix 360). Transplanted plants were covered with humidity domes for 3-4 days and placed in a 22° C. growth chamber as before or moved to directly to the greenhouse. Domes were subsequently removed and plants reared in the greenhouse (22±5° C., 50±30% RH, 14 h light:10 dark, minimum 500 μE/m^2s^1 natural+supplemental light) at least 1 day prior to testing for the ability of AAD-13 (v1) to provide phenoxy auxin herbicide resistance.\n(§1) T1 plants were then randomly assigned to various rates of 2,4-D. For Arabidopsis, 50 g ae/ha 2,4-D is an effective dose to distinguish sensitive plants from ones with meaningful levels of resistance. Elevated rates were also applied to determine relative levels of resistance (280, 560, 1120, or 2240 g ae/ha). Tables 11 and 12 show comparisons drawn to an aryloxyalkanoate herbicide resistance gene (AAD-12 (v1)) previously described in PCT/US2006/042133.\n(§2) All auxin herbicide applications were made using the DeVilbiss sprayer as described above to apply 703 L/ha spray volume (0.4 ml solution/3-inch pot) or applied by track sprayer in a 187 L/ha spray volume. 2,4-D used was either technical grade (Sigma, St. Louis, Mo.) dissolved in DMSO and diluted in water (<1% DMSO final concentration) or the commercial dimethylamine salt formulation (456 g ae/L, NuFarm, St Joseph, Mo.). Dichlorprop used was commercial grade formulated as potassium salt of R-dichlorprop (600 g ai/L, AH Marks). As herbicide rates increased beyond 800 g ae/ha, the pH of the spray solution became exceedingly acidic, burning the leaves of young, tender Arabidopsis plants and complicating evaluation of the primary effects of the herbicides.\nThe first Arabidopsis transformations were conducted using AAD-13 (v1) (plant optimized gene). T1 transformants were first selected from the background of untransformed seed using a glufosinate selection scheme. Over 160,000 T1 seed were screened and 238 glufosinate resistant plants were identified (PAT gene), equating to a transformation/selection frequency of 0.15% which lies in the normal range of selection frequency of constructs where PAT+Liberty are used for selection. T1 plants selected above were subsequently transplanted to individual pots and sprayed with various rates of commercial aryloxyalkanoate herbicides. Table 11 compares the response of AAD-13 (v1) and control genes to impart 2,4-D resistance to Arabidopsis T1 transformants. Response is presented in terms of % visual injury 2 WAT. […] An arithmetic mean and standard deviation is presented for each treatment. The range in individual response is also indicated in the last column for each rate and transformation. PAT/Cry1F-transformed Arabidopsis served as an auxin-sensitive transformed control. The AAD-13 (v1) gene imparted herbicide resistance to individual T1 Arabidopsis plants. Within a given treatment, the level of plant response varied greatly and can be attributed to the fact each plant represents an independent transformation event. Of important note, at each 2,4-D rate tested, there were individuals that were unaffected while some were severely affected. […] At high rates the spray solution becomes highly acidic unless buffered therefore some of the injury may be attributed to the acidity of the spray solution. Arabidopsis grown mostly in the growth chamber has a very thin cuticle and severe burning effects can complicate testing at these elevated rates. […]"}, "[2]": {"system": "Homozygous AAD-12 (v1) gene T4 Arabidopsis plants", "assay": "Herbicide response of homozygous AAD-12 (v1) T4 Arabidopsis", "assay_type": "in vivo, Arabidopsis thaliana", "settings": "for % Injury 20-40% (individuals) / % Injury <20% (individuals) / % Injury >40% (individuals) / % Injury Ave: 14 DAT", "excerpt": "as §1, §2\nThe first Arabidopsis transformations were conducted using AAD-13 (v1) (plant optimized gene). T1 transformants were first selected from the background of untransformed seed using a glufosinate selection scheme. Over 160,000 T1 seed were screened and 238 glufosinate resistant plants were identified (PAT gene), equating to a transformation/selection frequency of 0.15% which lies in the normal range of selection frequency of constructs where PAT+Liberty are used for selection. T1 plants selected above were subsequently transplanted to individual pots and sprayed with various rates of commercial aryloxyalkanoate herbicides. Table 11 compares the response of AAD-13 (v1) and control genes to impart 2,4-D resistance to Arabidopsis T1 transformants. Response is presented in terms of % visual injury 2 WAT. […] An arithmetic mean and standard deviation is presented for each treatment. The range in individual response is also indicated in the last column for each rate and transformation. PAT/Cry1F-transformed Arabidopsis served as an auxin-sensitive transformed control. The AAD-13 (v1) gene imparted herbicide resistance to individual T1 Arabidopsis plants. Within a given treatment, the level of plant response varied greatly and can be attributed to the fact each plant represents an independent transformation event. Of important note, at each 2,4-D rate tested, there were individuals that were unaffected while some were severely affected. […] At high rates the spray solution becomes highly acidic unless buffered therefore some of the injury may be attributed to the acidity of the spray solution. Arabidopsis grown mostly in the growth chamber has a very thin cuticle and severe burning effects can complicate testing at these elevated rates. Nonetheless, many individuals have survived 2,240 g ae/ha 2,4-D with little or no injury.\nThe ability of AAD-13 (v1) to provide resistance to other aryloxyalkanoate auxin herbicides in transgenic Arabidopsis was determined by foliar application of various substrates. T2 generation Arabidopsis seed was stratified, and sown into selection trays much like that of Arabidopsis (Example 6.4). A transformed-control line containing PAT and the insect resistance gene Cry1F was planted in a similar manner. Seedlings were transferred to individual 3-inch pots in the greenhouse. All plants were sprayed with the use of a track sprayer set at 187 L/ha. The plants were sprayed with a range of pyridyloxyacetate herbicides: 200-800 g ae/ha triclopyr (Garlon 3A, Dow AgroSciences) and 200-800 g ae/ha fluoroxypyr (Starane, Dow AgroSciences). […]"}}, "data": [{"smiles": "CNC.O=C(O)COc1ccc(Cl)cc1Cl", "note": "[2,4-D DMA]", "values": [{"measurement": "% Injury 20-40% (individuals)", "setting": "[1]; 280 g ae/ha postemergence", "value": 4}, {"measurement": "% Injury <20% (individuals)", "setting": "[1]; 280 g ae/ha postemergence", "value": 12}, {"measurement": "% Injury >40% (individuals)", "setting": "[1]; 280 g ae/ha postemergence", "value": 4}, {"measurement": "% Injury Ave", "setting": "[1]; 280 g ae/ha postemergence", "value": 21, "unit": "%"}, {"measurement": "% Injury 20-40% (individuals)", "setting": "[1]; 560 g ae/ha postemergence", "value": 2}, {"measurement": "% Injury <20% (individuals)", "setting": "[1]; 560 g ae/ha postemergence", "value": 17}, {"measurement": "% Injury >40% (individuals)", "setting": "[1]; 560 g ae/ha postemergence", "value": 0}, {"measurement": "% Injury Ave", "setting": "[1]; 560 g ae/ha postemergence", "value": 2, "unit": "%"}, {"measurement": "% Injury 20-40% (individuals)", "setting": "[1]; 1120 g ae/ha postemergence", "value": 0}, {"measurement": "% Injury <20% (individuals)", "setting": "[1]; 1120 g ae/ha postemergence", "value": 20}, {"measurement": "% Injury >40% (individuals)", "setting": "[1]; 1120 g ae/ha postemergence", "value": 0}, {"measurement": "% Injury Ave", "setting": "[1]; 1120 g ae/ha postemergence", "value": 2, "unit": "%"}, {"measurement": "% Injury 20-40% (individuals)", "setting": "[1]; 2240 g ae/ha postemergence", "value": 3}, {"measurement": "% Injury <20% (individuals)", "setting": "[1]; 2240 g ae/ha postemergence", "value": 14}, {"measurement": "% Injury >40% (individuals)", "setting": "[1]; 2240 g ae/ha postemergence", "value": 3}, {"measurement": "% Injury Ave", "setting": "[1]; 2240 g ae/ha postemergence", "value": 15, "unit": "%"}, {"measurement": "% Injury 20-40% (individuals)", "setting": "[2]; 280 g ae/ha postemergence", "value": 0}, {"measurement": "% Injury <20% (individuals)", "setting": "[2]; 280 g ae/ha postemergence", "value": 20}, {"measurement": "% Injury >40% (individuals)", "setting": "[2]; 280 g ae/ha postemergence", "value": 0}, {"measurement": "% Injury Ave", "setting": "[2]; 280 g ae/ha postemergence", "value": 0, "unit": "%"}, {"measurement": "% Injury 20-40% (individuals)", "setting": "[2]; 560 g ae/ha postemergence", "value": 0}, {"measurement": "% Injury <20% (individuals)", "setting": "[2]; 560 g ae/ha postemergence", "value": 20}, {"measurement": "% Injury >40% (individuals)", "setting": "[2]; 560 g ae/ha postemergence", "value": 0}, {"measurement": "% Injury Ave", "setting": "[2]; 560 g ae/ha postemergence", "value": 1, "unit": "%"}, {"measurement": "% Injury 20-40% (individuals)", "setting": "[2]; 1120 g ae/ha postemergence", "value": 0}, {"measurement": "% Injury <20% (individuals)", "setting": "[2]; 1120 g ae/ha postemergence", "value": 20}, {"measurement": "% Injury >40% (individuals)", "setting": "[2]; 1120 g ae/ha postemergence", "value": 0}, {"measurement": "% Injury Ave", "setting": "[2]; 1120 g ae/ha postemergence", "value": 2, "unit": "%"}, {"measurement": "% Injury 20-40% (individuals)", "setting": "[2]; 2240 g ae/ha postemergence", "value": 3}, {"measurement": "% Injury <20% (individuals)", "setting": "[2]; 2240 g ae/ha postemergence", "value": 16}, {"measurement": "% Injury >40% (individuals)", "setting": "[2]; 2240 g ae/ha postemergence", "value": 1}, {"measurement": "% Injury Ave", "setting": "[2]; 2240 g ae/ha postemergence", "value": 13, "unit": "%"}]}, {"smiles": "C[C@@H](Oc1ccc(Cl)cc1Cl)C(=O)O", "note": "[R-dichloroprop, R-dichlorprop]", "values": [{"measurement": "% Injury 20-40% (individuals)", "setting": "[1]; 800 g ae/ha postemergence", "value": 0}, {"measurement": "% Injury <20% (individuals)", "setting": "[1]; 800 g ae/ha postemergence", "value": 0}, {"measurement": "% Injury >40% (individuals)", "setting": "[1]; 800 g ae/ha postemergence", "value": 20}, {"measurement": "% Injury Ave", "setting": "[1]; 800 g ae/ha postemergence", "value": 100, "unit": "%"}, {"measurement": "% Injury 20-40% (individuals)", "setting": "[2]; 800 g ae/ha postemergence", "value": 0}, {"measurement": "% Injury <20% (individuals)", "setting": "[2]; 800 g ae/ha postemergence", "value": 0}, {"measurement": "% Injury >40% (individuals)", "setting": "[2]; 800 g ae/ha postemergence", "value": 20}, {"measurement": "% Injury Ave", "setting": "[2]; 800 g ae/ha postemergence", "value": 100, "unit": "%"}]}, {"smiles": "Nc1c(Cl)c(F)nc(OCC(=O)O)c1Cl", "note": "[fluoroxypyr]", "values": [{"measurement": "Ave. % Injury 14DAT", "setting": "[2]; 200 g ae/ha foliar-applied", "value": 48, "unit": "%"}, {"measurement": "Ave. % Injury 14DAT", "setting": "[2]; 400 g ae/ha foliar-applied", "value": 55, "unit": "%"}, {"measurement": "Ave. % Injury 14DAT", "setting": "[2]; 800 g ae/ha foliar-applied", "value": 60, "unit": "%"}]}, {"smiles": "O=C(O)COc1nc(Cl)c(Cl)cc1Cl", "note": "[triclopyr]", "values": [{"measurement": "Ave. % Injury 14DAT", "setting": "[2]; 200 g ae/ha foliar-applied", "value": 25, "unit": "%"}, {"measurement": "Ave. % Injury 14DAT", "setting": "[2]; 400 g ae/ha foliar-applied", "value": 33, "unit": "%"}, {"measurement": "Ave. % Injury 14DAT", "setting": "[2]; 800 g ae/ha foliar-applied", "value": 79, "unit": "%"}]}]}
